# Measurements taken from publication PMC7614720 (European journal of medicinal chemistry, 2021).
# Experiments:
# OXA-48 = OXA-48 (Klebsiella pneumoniae, UniProt Q6XEC0); assay: 1H NMR of enzymatic hydrolysis products; type: biochemical
# NDM-1 = NDM-1 (Klebsiella pneumoniae, UniProt C7C422); assay: 1H NMR of enzymatic hydrolysis products; type: biochemical
# Sequence of NDM-1 (C7C422 29-270, looked up): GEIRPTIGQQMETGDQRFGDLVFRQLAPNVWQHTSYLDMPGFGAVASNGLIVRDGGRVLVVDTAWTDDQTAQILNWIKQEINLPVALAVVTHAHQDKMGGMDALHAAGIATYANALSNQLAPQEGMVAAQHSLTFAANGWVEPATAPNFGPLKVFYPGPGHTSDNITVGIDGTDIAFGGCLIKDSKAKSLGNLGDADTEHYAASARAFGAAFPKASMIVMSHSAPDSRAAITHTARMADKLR
# Sequence of OXA-48 (Q6XEC0 23-265 limits assumed): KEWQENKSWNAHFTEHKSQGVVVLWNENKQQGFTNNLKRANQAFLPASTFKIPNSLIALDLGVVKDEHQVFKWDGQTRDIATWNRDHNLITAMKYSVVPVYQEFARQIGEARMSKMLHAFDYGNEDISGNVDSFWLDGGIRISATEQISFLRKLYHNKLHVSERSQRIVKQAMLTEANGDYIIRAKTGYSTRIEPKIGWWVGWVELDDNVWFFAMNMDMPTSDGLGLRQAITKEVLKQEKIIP
structure (smiles),measurement,setting,value
C[C@@H](O)[C@H]1C(=O)N2C(C(=O)O)=C([C@H]3CCCO3)S[C@H]12 [faropenem],"1H NMR of enzymatic hydrolysis products (5 μM enzyme, 55 min)",OXA-48,"the class D SBLs OXA-10, OXA-23 and OXA-48 and the B1 MBLs NDM-1 and VIM-1"
same,"1H NMR of enzymatic hydrolysis products (5 μM enzyme, 5 min)",NDM-1,we subsequently studied the reaction of faropenem with other SBLs/MBLs
